In patent US9458145B2, “Benzimidazole derivatives as bromodomain inhibitors” (Gilead Sciences, Inc., priority 2013, dated 2016):

What follows are compounds tested on MT-4 cells (assay: MT-4 proliferation assay). Details: Homo sapiens, MT4, 120 h, read-out: MT4 Assay, (IC50, nM).
Format: cell-based, human
Protocol: MT-4 Proliferation Assay:
Compounds were tested in a standardized high-throughput 384-well assay format. Each compound was serially diluted 3-fold in 100% DMSO in polypropylene 384-well plates using a Biomek FX Workstation, and 0.4 μL compound added to an assay plate containing 40 μL RPMI media. Compounds were arranged in a horizontal pattern, with 10 concentrations per compound, and 8 compounds added per plate. Due to low DMSO tolerability, the final DMSO concentration never exceeded 0.5% (v/v). Each assay plate contained 10 μM Puromycin and 0.5% DMSO in RPMI-1640 as positive and negative controls respectively. MT-4 cells (HTLV-1 transformed, human T lymphoblastoid cells, NIH Aids Reagent program) were added in volumes of 35 μL per well and 2,000 cells per well using a Biotek uFlow Workstation (Biotek, Winooski, Vt.), and the plates subsequently incubated for 5 days at 37° C. in an incubator set at 5% CO2 and 90% humidity.
After 5 days, 22 μL Cell Titer Glo (Promega) was added to the assay plates with a Biotek uFlow Workstation. Plates were subsequently placed on a Perkin Elmer Envision Plate Reader for 5 minutes before the luminescence signal was read.

With `Cc1noc(C)c1-c1cc(S(=O)(=O)NC2CCCC2)c2nc([S+](C)[O-])[nH]c2c1` (stereo not drawn) [Compound 1020-5, N-Cyclopentyl-6-(3,5-dimethylisoxazol-4-yl)-2-(methylsulfinyl)-1H-benzo[d]imidazole-4-sulfonamide] the IC50 was 329 nM.

Same assay, conditions: Homo sapiens, MT4, 120 h; Table 1; 5 days, Cell Titer Glo; method text calls it EC50; read-out: MT4 Assay, (IC50)

`Cc1noc(C)c1-c1cc(S(=O)(=O)NC2CCCC2)c2nc(NCC3CC3)[nH]c2c1` [Compound 1020-1, N-Cyclopentyl-2-(cyclopropylmethylamino)-6-(3,5-dimethylisoxazol-4-yl)-1H-benzo[d]imidazole-4-sulfonamide] and `CSc1nc2c(S(=O)(=O)NC3CCCC3)cc(-c3c(C)noc3C)cc2[nH]1` [Compound 1020-4, N-Cyclopentyl-6-(3,5-dimethylisoxazol-4-yl)-2-(methylthio)-1H-benzo[d]imidazole-4-sulfonamide] are within 1.5-fold of each other in IC50: 193 nM for the first, 192 nM for the second.

Compared with `Cc1cnn(C)c1-c1cc(-c2c(C)noc2C)cc2nc(C3CC3)[nH]c12` [Compound 1020-12, 4-(2-Cyclopropyl-7-(1,4-dimethyl-1H-pyrazol-5-yl)-1H-benzo[d]imidazol-5-yl)-3,5-dimethylisoxazole], `Cc1ccnc(C)c1-c1cc(-c2c(C)noc2C)cc2nc(C3CC3)[nH]c12` [Compound 1020-57, 4-(2-Cyclopropyl-7-(2,4-dimethylpyridin-3-yl)-1H-benzo[d]imidazol-5-yl)-3,5-dimethylisoxazole] is 1.6-fold lower in IC50: 21.3 nM for the first, 13.6 nM for the second. The second is the more potent here.

Compared with `Cc1noc(C)c1-c1cc(-c2cccnc2-c2ccccc2)c2nc(C3CC3)[nH]c2c1` [Compound 1020-19, 4-(2-Cyclopropyl-4-(2-phenylpyridin-3-yl)-1H-benzo[d]imidazol-6-yl)-3,5-dimethylisoxazole], `Cc1noc(C)c1-c1cc(C(O)(c2ccccc2)c2ccccc2)c2nc(C3CC3)[nH]c2c1` [Compound 1020-102, (2-Cyclopropyl-6-(3,5-dimethylisoxazol-4-yl)-1H-benzo[d]imidazol-4-yl)diphenylmethanol] is 2-fold higher in IC50: 24.4 nM for the first, 49.7 nM for the second.

`CC/C=C(\CC)c1cc(-c2c(C)noc2C)cc2nc(C3CC3)[nH]c12` [Compound 1020-28, (E)-4-(2-Cyclopropyl-4-(hex-3-en-3-yl)-1H-benzo[d]imidazol-6-yl)-3,5-dimethylisoxazole] and `CCC(CC)c1cc(-c2c(C)noc2C)cc2[nH]c(C3CC3)nc12` [Compound 1020-120, 4-(2-Cyclopropyl-4-(pentan-3-yl)-1H-benzo[d]imidazol-6-yl)-3,5-dimethylisoxazole] are within 1.5-fold of each other in IC50: 51.6 nM for the first, 48.8 nM for the second.

Compared with `Cc1noc(C)c1-c1cc(/C=C/c2ccccc2)c2[nH]c(C3CC3)nc2c1` [Compound 1020-37, (E)-4-(2-cyclopropyl-4-styryl-1H-benzo[d]imidazol-6-yl)-3,5-dimethylisoxazole], `Cc1noc(C)c1-c1cc(C(C)c2ccc(F)cc2)c2[nH]c(C3CC3)nc2c1` (stereo not drawn) [Compound 1020-44, 4-(2-Cyclopropyl-4-(1-(4-fluorophenyl)ethyl)-1H-benzo[d]imidazol-6-yl)-3,5-dimethylisoxazole] is 6-fold lower in IC50: 518 nM for the first, 86.1 nM for the second.

Compared with `Cc1noc(C)c1-c1cc(NC2CCCC2)c2nc(C3CC3)[nH]c2c1` [Compound 1020-50, N-Cyclopentyl-2-cyclopropyl-6-(3,5-dimethylisoxazol-4-yl)-1H-benzo[d]imidazol-4-amine], `Cc1noc(C)c1-c1cc(C(O)C2CCCC2)c2nc(C3CC3)[nH]c2c1` (stereo not drawn) [Compound 1020-121, Cyclopentyl(2-cyclopropyl-6-(3,5-dimethylisoxazol-4-yl)-1H-benzo[d]imidazol-4-yl)methanol] is 8.2-fold lower in IC50: 353 nM for the first, 42.8 nM for the second. The second is the more potent here.

First: Cc1n[nH]c(C)c1-c1cc(-c2c(C)noc2C)cc2nc(C3CC3)n(C)c12 [Compound 1020-72, 4-(2-cyclopropyl-7-(3,5-dimethyl-1H-pyrazol-4-yl)-1-methyl-1H-benzo[d]imidazol-5-yl)-3,5-dimethylisoxazole]
Second: Cc1nc2cc(-c3c(C)noc3C)cc(-c3c(C)n[nH]c3C)c2[nH]1 [Compound 1020-77, 4-(7-(3,5-Dimethyl-1H-pyrazol-4-yl)-2-methyl-1H-benzo[d]imidazol-5-yl)-3,5-dimethylisoxazole]
The IC50 of the first is 6.1-fold lower: 6.5 nM for the first, 39.4 nM for the second. The first is the more potent here.

First: Cc1ccc2ncccc2c1-c1cc(-c2c(C)noc2C)cc2nc(C3CC3)n(C)c12 [Compound 1020-74, 4-(2-Cyclopropyl-1-methyl-7-(6-methylquinolin-5-yl)-1H-benzo[d]imidazol-5-yl)-3,5-dimethylisoxazole]
Second: COc1nc2c(-c3c(C)ccc4ncccc34)cc(-c3c(C)noc3C)cc2[nH]1 [Compound 1020-90, 4-(2-methoxy-4-(6-methylquinolin-5-yl)-1H-benzo[d]imidazol-6-yl)-3,5-dimethylisoxazole]
The IC50 of the first is 1.6-fold lower: 15.3 nM for the first, 25 nM for the second. The first is the more potent here.

First: Cc1n[nH]c(C)c1-c1cc(-c2c(C)noc2C)cc2nc(C3CC3(F)F)[nH]c12 (stereo not drawn) [Compound 1020-78, 4-(2-(2,2-Difluorocyclopropyl)-7-(3,5-dimethyl-1H-pyrazol-4-yl)-1H-benzo[d]imidazol-5-yl)-3,5-dimethylisoxazole]
Second: Cc1n[nH]c(C)c1-c1cc(-c2c(C)noc2C)cc2nc(N)[nH]c12 [Compound 1020-96, 4-(3,5-Dimethyl-1H-pyrazol-4-yl)-6-(3,5-dimethylisoxazol-4-yl)-1H-benzo[d]imidazol-2-amine]
The IC50 of the first is 12-fold lower: 25.7 nM for the first, 318 nM for the second. The first is the more potent here.

Going from `Cc1n[nH]c(C)c1-c1cc(-c2c(C)noc2C)cc2[nH]c(NCC3CC3)nc12` [Compound 1020-79, N-(Cyclopropylmethyl)-4-(3,5-dimethyl-1H-pyrazol-4-yl)-6-(3,5-dimethylisoxazol-4-yl)-1H-benzo[d]imidazol-2-amine] to `Cc1n[nH]c(C)c1-c1cc(-c2c(C)noc2C)cc2[nH]c(NC3CC3)nc12` [Compound 1020-81, N-Cyclopropyl-4-(3,5-dimethyl-1H-pyrazol-4-yl)-6-(3,5-dimethylisoxazol-4-yl)-1H-benzo[d]imidazol-2-amine], the IC50 falls from 33.8 nM to 7.6 nM (4.4-fold).

Compared with `Cc1ccnc(C)c1-c1cc(-c2c(C)noc2C)cc2[nH]cnc12` [Compound 1020-84, 4-(4-(2,4-Dimethylpyridin-3-yl)-1H-benzo[d]imidazol-6-yl)-3,5-dimethylisoxazole], `Cc1ccc2ncccc2c1-c1cc(-c2c(C)noc2C)cc2[nH]c(C(F)(F)F)nc12` [Compound 1020-92, 3,5-Dimethyl-4-(4-(6-methylquinolin-5-yl)-2-(trifluoromethyl)-1H-benzo[d]imidazol-6-yl)isoxazole] is 3.2-fold lower in IC50: 236 nM for the first, 73.1 nM for the second.

Compared with `Cc1ccc2ncccc2c1-c1cc(-c2c(C)noc2C)cc2[nH]c(-c3cnn(C)c3)nc12` [Compound 1020-88, 3,5-Dimethyl-4-(2-(1-methyl-1H-pyrazol-4-yl)-4-(6-methylquinolin-5-yl)-1H-benzo[d]imidazol-6-yl)isoxazole], `Cc1ccc2ncccc2c1-c1cc(-c2c(C)noc2C)cc2[nH]c(C(O)CCO)nc12` (stereo not drawn) [Compound 1020-89, 1-(6-(3,5-dimethylisoxazol-4-yl)-4-(6-methylquinolin-5-yl)-1H-benzo[d]imidazol-2-yl)propane-1,3-diol] is 2.3-fold higher in IC50: 45.2 nM for the first, 104 nM for the second. The first is the more potent here.

Work on `CCC(O)(CC)c1cc(-c2c(C)noc2C)cc2c1nc(C1CC1)n2C` [Compound 1020-132, 3-(2-Cyclopropyl-6-(3,5-dimethylisoxazol-4-yl)-1-methyl-1H-benzo[d]imidazol-4-yl)pentan-3-ol] yielded an IC50 of 544 nM.

Same assay, conditions: Table 1; 5 days, Cell Titer Glo; method text calls it EC50; read-out: MT4 Assay, (IC50)

In the case of `Cc1n[nH]c(C)c1-c1cc(-c2c(C)noc2C)cc2[nH]c(C3CCC3)nc12` [Compound 1020-75, 4-(2-Cyclobutyl-4-(3,5-dimethyl-1H-pyrazol-4-yl)-1H-benzo[d]imidazol-6-yl)-3,5-dimethylisoxazole], the IC50 is reported as 18.4 nM.
